Measured values: PubChem BioAssay AID1981 (Southern Research Specialized Biocontainment Screening …, 2009)
Where “and” joins values, the source holds several entries; their conditions need not be identical. Equal entries are not always repeated.

Test system: S. Typhimurium PhoP-promoter GFP reporter counterscreen, fluorescence, 4 h
Assay: S. Typhimurium GFP fluorescence dose response in modified counterscreen for PhoP regulon inhibitor project (AID 1981)

SMILES	IC50
Fc1ccc(Nc2nc(NCc3ccco3)c3ccccc3n2)cc1	32.6 µM
Nc1cccc2nc3ccccc3cc12	43.4 µM
CCCC(=O)NC(c1ccccc1)c1ccc2cccnc2c1O (stereo not given)	32.1 µM
CCOc1ccc(Nc2c3ccccc3nc3ccccc23)cc1	94 µM
Cc1ccnc(NC(c2cccnc2)c2ccc3cccnc3c2O)c1 (stereo not given)	76.4 µM
CN(C)c1ccc(/C=C/c2ccc3ccccc3[n+]2C)cc1	26.9 µM
CO[C@H]1/C=C/O[C@@]2(C)Oc3c(C)c(O)c4c(O)c(c(C=NN5CCN(C)CC5)c(O)c4c3C2=O)NC(=O)/C(C)=C\C=C\[C@H](C)[C@H](O)[C@@H](C)[C@@H](O)[C@@H](C)[C@H](OC(C)=O)[C@@H]1C	10.3 µM
O=C(O)CCN1C(=O)CC(N2C(=O)/C(=C/c3ccc(Cl)cc3)SC2=S)C1=O (stereo not given)	22.5 µM
C1=C(CCNCc2ccccc2)CCCC1	9.75 µM
O=C(C[n+]1cc(-c2ccc(Cl)cc2)n2c1CCC2)Nc1nc(-c2ccc(F)cc2)cs1	68.2 µM
Cc1ccc(C(C[N+](=O)[O-])c2c(N)n(C)c(=O)n(C)c2=O)cc1 (stereo not given)	18.4 µM
O=[N+]([O-])c1ccc(O)c(/C=N/Nc2ccccn2)c1	12.5 µM
CN1CCN(C(c2ccc(Cl)cc2)c2cc(Cl)c3cccnc3c2O)CC1 (stereo not given)	32.9 µM
CN1CCN(c2c(F)cc3c(=O)c(C(=O)O)cn4c3c2OCN4C)CC1	0.28 µM
NC(Cc1cc(O)c(O)cc1O)C(=O)O (stereo not given)	93 µM
O=C(C[n+]1cc(-c2ccc(Cl)cc2)n2c1CCC2)Nc1nc(-c2ccccc2)cs1	95 µM
Cc1ccc(S(=O)(=O)/N=C2/C=C(Sc3ncn[nH]3)C(=O)c3ccccc32)cc1	36.6 µM
C[C@H]1c2cccc(O)c2C(O)=C2C(=O)C3(O)C(O)=C(C(N)=O)C(=O)[C@@H](N(C)C)[C@@H]3[C@@H](O)[C@@H]21 (stereo not given in full)	1.83 µM
CCCCCCCCCC[N+](C)(C)CC/C=C1/c2ccccc2Sc2ccc(Cl)cc21	40 µM
O=c1cc2oc3cc(O)c(O)cc3c(-c3ccccc3[N+](=O)[O-])c-2cc1O	56.6 µM
O=C1C(SCCO)=C(SCCO)C(=O)c2ccccc21	64.9 µM
O=C1C=C(N2CCOCC2)c2ccccc2C1=O	69.9 µM
O=C(Oc1c(Cl)cc(Cl)c2cccnc12)c1ccco1	17.3 µM
CCCCCCCNC(=O)C1(CC2CC(c3cccc(Br)c3)=NO2)CCNCC1 (stereo not given)	58.7 µM
O=S1(=O)CCC(NC(=S)SCCOc2ccccc2)C1 (stereo not given)	86.5 µM

SMILES	IC50
CN(C)CCCNc1cc(C(C)(C)C)nc2c(-c3ccccc3)cnn12	83.5 µM
C#CCOCCOCCOCCNc1nc(N2CCN(C(=O)CCCCCCCCCCNC(=O)[C@H](CCCN=C(N)N)n3cc(C[C@@H](C)CC)nn3)CC2)nc(N2CCN(C(=O)CCCCCCCCCCNC(=O)[C@@H]([C@H](C)CC)n3cc(CCCCCN)nn3)CC2)n1	41.4 µM
CCCC(=O)NC(c1ccc(Cl)cc1)c1ccc2cccnc2c1O (stereo not given)	62.3 µM
COc1ccc(Nc2cc(C)c3c(O)cccc3n2)cc1	70 µM
NC(=NCCCCCCN=C(N)/N=C(\N)Nc1ccc(Cl)cc1)/N=C(\N)Nc1ccc(Cl)cc1	9.12 µM and 9.93 µM and 9.09 µM
NC1=NC[C@H](Cc2ccc(O)cc2)N1CCCCC1CCCCC1	84.1 µM
CC[C@H]1OC(=O)[C@H](C)[C@@H](O[C@H]2C[C@@](C)(OC)[C@@H](O)[C@H](C)O2)[C@H](C)[C@@H](O[C@@H]2O[C@H](C)C[C@H](N(C)C)[C@H]2O)[C@](C)(O)C[C@@H](C)[C@@H]2N[C@@H](COCCOC)O[C@H]([C@H]2C)[C@]1(C)O	22.6 µM
CCn1cc(C(=O)NCCCO)c(=O)c2cc(F)c(N3CCN(C)CC3)cc21	46 µM
COc1ccccc1CNCC(O)Cn1c2ccccc2c2ccccc21 (stereo not given)	88.7 µM
CC(C)(C)CC(C)(C)c1ccc(OCCOCC[N+](C)(C)Cc2ccccc2)cc1	47.1 µM
O=[N+]([O-])c1ccc(O)c2ncccc12	2.7 µM
c1ccc(-c2cccc(-c3ccccn3)n2)nc1	16.4 µM
CN(C)c1ccc(/C=C/c2ccc3c4ccccc4ccc3[n+]2-c2ccccc2)cc1	18.8 µM
COc1ccc(C(C[N+](=O)[O-])c2c(-c3ccccc3)cc3ccccn23)cc1 (stereo not given)	56.9 µM
CCn1cc(C(=O)O)c(=O)c2cnc(N3CCNCC3)nc21	58.4 µM
COc1cc(C)c(Cc2cnc(N)nc2N)cc1OC	3.05 µM
COc1c(N2CCN[C@H](C)C2)c(F)cc2c(=O)c(C(=O)O)cn(C3CC3)c12	0.34 µM
CC(=O)NC(c1cccs1)c1cc([N+](=O)[O-])c2cccnc2c1O (stereo not given)	35.5 µM
CCn1cc(C(=O)O)c(=O)c2cc(F)c(N3CCN(C(=S)NC(=O)c4ccc(F)c(F)c4)CC3)cc21	46.6 µM
NC1=NC[C@H](Cc2ccc(O)cc2)N1CCC12CC3CC(CC(C3)C1)C2	78.9 µM
COc1c(N2CCN(C(=S)NCc3ccccc3)C(C)C2)c(F)cc2c(=O)c(C(=O)O)cn(C3CC3)c12 (stereo not given)	31.9 µM
COc1ccc(/C=N/Nc2cc(C)nc3ccccc23)cc1	84.8 µM
NC1=NC[C@H](c2ccccc2)N1CCCCC1CCCCC1	66 µM
CCCCCCCCCCCCCCCC[N+](C)(C)CCN(Cc1ccc(OC)cc1)c1ncccn1	24.2 µM
O=C(NC1CCCC1)c1ccc(Cl)s1	86.3 µM
